Reference: US9611223B2, “3-aryl-5-substituted-isoquinolin-1-one compounds and their therapeutic use” (INSTITUTE OF CANCER RESEARCH: ROYAL CANCER HOSPITAL (THE), priority 2013, dated 2017)
Read-outs that look alike come from different tables or passages of the source.

Columns and labels:
TNKS1 = target: T1, TNKS1 (Homo sapiens, UniProt O95271, M1266I); experiment: TNKS1/PARP Biochemical Assay
T1 construct: expresses the active PARP domain of TNKS1 as a polyhistidine tagged protein; made in house; host or cells: E. coli Rosetta2(DE3)
T1 sequence (O95271 1112-1317 M1266I): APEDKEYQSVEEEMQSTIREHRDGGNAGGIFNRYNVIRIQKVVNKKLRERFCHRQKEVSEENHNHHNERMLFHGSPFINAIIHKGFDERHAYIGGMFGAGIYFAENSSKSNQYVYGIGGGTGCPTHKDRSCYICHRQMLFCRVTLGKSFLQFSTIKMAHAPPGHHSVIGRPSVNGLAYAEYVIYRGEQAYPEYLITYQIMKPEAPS
Protocol: TNKS1/PARP Biochemical Assay
Tankyrase activity was assayed using a 96-well format HT Universal Chemiluminescent PARP Assay Kit (Trevigen, Inc, cat. no. 4676-096-K) according to the manufacturer's instructions. In short, tankyrase/PARP activity is quantified by the incorporation of biotinylated nicotinamide adenine dinucleotide (biotin-NAD^+) onto the immobilised pseudo substrate, Histone. The extent of poly(Biotin-ADP)ribosylation (PARylation) in the presence of increasing dose of inhibitor is then quantified by binding of streptavidin conjugated horse radish peroxidase (strep-HRP) followed by chemiluminescent detection.
Prior to assay initiation, inhibitor stocks were prepared in aqueous DMSO (10% (v/v)) from 5 millimolar (mM) stock in 100% DMSO (Sigma Aldrich, cat. no. 265855) as 10× concentrations. For the primary assay (i.e., single dose at 1 micromolar (μM) final concentration) this corresponded to 10 μM in 10% DMSO. For IC50 determination, this corresponded to 100 μM, 30 μM, 10 μM, 3.0 μM, 1.0 μM, 0.30 μM, 0.10 μM and 0 μM in 10% DMSO for final concentrations of 10 μM, 3.0 μM, 1.0 μM, 0.30 μM, 0.10 μM, 0.030 μM, 0.010 μM, and 0 μM with 1% (v/v) final DMSO. The assay was initiated by the addition of 10× inhibitor (5 microliters (μL)) or 10% aqueous DMSO (5 μL) to triplicate wells. Twenty microliters of diluted TNKS1 protein (200 nanomolar (nM) final conc.) in PARP buffer (Trevigen, Inc, cat. no. 4671-096-02) was added to each histone coated well, which was previously hydrated with PARP buffer. Triplicate wells with 1% DMSO/buffer alone (no enzyme) were also added as a measure of assay ‘noise’. Positive control for PARP inhibition included the addition of 4-amino-1,8-naphthalimide (Sigma Aldrich, cat. no A0966) in corresponding doses.
The mixture was incubated for 10 minutes at room temperature and the PARylation reaction initiated by the addition of PARP cocktail (25 μL, Trevigen, Inc) containing biotin-NAD^+ (Trevigen, Inc, cat. no. 4670-500-01), activated DNA (Trevigen, Inc, cat. no. 4671-096-06) and PARP buffer. The reaction was incubated for 1.5 hours (for TNKS1) or 1 hour (for PARP1) at room temperature. The reaction mixture was then removed by aspiration and the wells washed (3×200 μL) with phosphate buffered saline containing Triton X-100 (0.1% (v/v), Sigma Aldrich cat. no. T8787). The wells were then washed (3×200 μL) with phosphate buffered saline and then incubated with strep-HRP (50 μL, Trevigen, Inc, cat. no. 4800-30-06) in strep-diluent (1:500 dilution, Trevigen Inc, cat. no. 4671-096-04) for 1 hour at room temperature. The Strep-HRP mixture was then aspirated and the wells washed (3×200 μL) with phosphate buffered saline containing Triton X-100 (0.1% (v/v)) followed by phosphate buffered saline (3×200 μL) and then incubated with PeroxyGlow™ reagent (100 μL, Trevigen, Inc, cat. nos. 4675-096-01, 4675-096-02, room temperature, mixed 1:1).
The amount of light emitted as a result of the peroxidase-chemiluminescent reagent reaction was in proportion to the extent of poly(Biotin-ADP)ribosylation and was immediately measured with a Victor^2 plate reader (Perkin Elmer, luminescence detection assay, luminescent units described as ‘Counts Per Second’ (CPS)). The data were normalised to the DMSO control after subtraction of ‘noise’ and was expressed as % PARP activity as a function of inhibitor dose. Inhibition was expressed as 100%−(% PARP activity). Dose response curves used to determine IC50 values were Log transformed and analysed by non-linear regression analysis (variable slope) using Prism (GraphPad Software, Inc) and were presented as IC50 with 95% confidence interval to determine relative potency.
Tankyrase1 (pNIC-Bsa4-TNKS1^PARP) expression construct was obtained from the Structural Genomics Consortium (SGC) and expresses the active PARP domain of TNKS1 as a polyhistidine tagged protein. […]

Wnt signalling = experiment: Wnt-Luciferase Reporter Assay; assay type: cell-based; settings: DLD1-Wnt-Luc cells, 20-22 hours
Protocol: Wnt-Luciferase Reporter Assay
A Wnt dependent cell line (i.e., DLD1 colorectal adenocarcinoma cell line) was transduced with replication incompetent VSV-g pseudotyped lentiviral particles expressing the firefly luciferase gene under the control of minimal cytomegalovirus (mCMV) promoter and tandem repeats of the TCF/LEF transcriptional response element.
DLD1-Wnt-Luc cells were seeded (5000 cells/well) in a 96-well plate (Greiner Bio-One, cat. no. 655098) in Dubelco's Modified Eagle Medium (DMEM, SFBCO/Invitrogen, cat no. 41965-039) supplemented with Fetal Bovine Serum (FBS, 10%, SFBCO/Invitrogen, cat no. 10108-165). After overnight incubation, the media was replaced with OptiMEM (SFBCO/Invitrogen, cat no. 11058-021) supplemented with FBS (0.5%) and non-essential amino acids (1%, SFBCO/Invitrogen, cat no. 11140-035) and the appropriate putative TNKS inhibitor at a final concentration of 10 μM, 3 μM, 1 μM, 0.30 μM, 0.10 μM, 0.030 μM, 0.010 μM and 0 μM with 1% (v/v) final DMSO in double-triplicate wells. Positive control includes the use of XAV-939 (Maybridge, FisherScientific, 3,5,7,8-tetrahydro-2-[4-(trifluoromethyl)phenyl]-4H-thiopyrano[4,3-d]pyrimidin-4-one, cat. no. RF03920, see: Huang et al., Nature, 2009, Vol. 461, pp. 614-620). Cells were incubated for 20-22 hours before assaying for luciferase (first set of triplicates: Wnt activation) and viability (second set of triplicates: cell survival for data normalisation vs Wnt-activation) using ONE-Glo (Promega, cat. no. E6110) and CellTiter-Glo (Promega, cat. no. G7570) reagents consecutively. The assay was measured using a Victor^2 plate reader. The data were normalised to the DMSO control and were expressed as % Wnt activity as a function of inhibitor dose. Dose response curves used to determine IC50 values were Log transformed and analysed by non-linear regression analysis (variable slope) using Prism (GraphPad Software, Inc).

COLO320DM cells = experiment: Tumour Cell Inhibition Assay (COLO320DM cells); assay type: cell-based; settings: Homo sapiens, COLO 320DM, 120 h, five day exposure, read-out: cell inhibitory SF50 (COLO320DM)
Protocol: (§1) Tumour Cell Inhibition in Colorectal Tumour Cells
(§2) In order to determine the efficacy of acute dosing of putative TNKS inhibitors, five day exposure cell viability assays were carried out. This included the sparse seeding of cells in a 96-well plate followed by continuous dosing of cells over a five day period.
(§3) Appropriate cell lines (HT55, COLO320DM and SW620) were seeded at 500 cells/well in a 96-well plate in MEM (HT55), RPMI (COLO320DM) or DMEM (SW620) supplemented with FBS. After overnight incubation, cells were treated with the appropriate putative TNKS inhibitor in 6 or 10 concentrations ranging from 0 μM to 10 μM at 0.2% final DMSO concentration in appropriate media supplemented with 10% or 0.5% FBS. Dosages were carried out in triplicate. Termination of the assay and measurement of cell viability was achieved by the use of Cell Titre Glo reagent and luminescence measurement on an appropriate plate reader.
(§4) Dose response curves used to determine SF50 values were Log transformed and analysed by non-linear regression analysis (variable slope) using Prism (GraphPad Software, Inc).

HT55 cells = experiment: Tumour Cell Inhibition Assay (HT55 cells); assay type: cell-based; settings: Homo sapiens, HT55, 120 h, read-out: cell inhibitory SF50 (HT55)
Protocol: as §1, §2, §3, §4

[1] = Tumour Cell Inhibition Assay, five day exposure

Structure (SMILES) | IC50 (TNKS1) | IC50 (Wnt signalling) | IC50 (COLO320DM cells) | IC50 (HT55 cells; [1]) | IC50 (HT55 cells)
Cc1nnc(NCc2ccc(-c3cc4c(C#N)cccc4c(=O)[nH]3)cc2)o1 [IQ-045, 3-{4-[5-Methyl-[1,3,4-oxadiazol-2-ylamino)methyl]phenyl}-1-oxo-1,2-dihydroisoquinoline-5-carbonitrile] | < 50 nM | < 300 nM | < 5000 nM | – | –
CN1CCN(C(=O)Cc2ccc(-c3cc4c(C#N)cccc4c(=O)[nH]3)cc2)CC1 [IQ-037] | < 50 nM | < 300 nM | < 5000 nM | – | –
N#Cc1cccc2c(=O)[nH]c(-c3ccc(Cn4ccnc4CO)cc3)cc12 [IQ-015, 3-[4-(2-Hydroxymethyl-imidazol-1-ylmethyl)-phenyl]-1-oxo-1,2-dihydro-isoquinoline-5-carbonitrile] | < 50 nM | – | < 5000 nM | < 5000 nM | –
Cc1nnc(C2CCN(Cc3ccc(-c4cc5c(C#N)cccc5c(=O)[nH]4)cc3)CC2)o1 [IQ-041] | < 50 nM | < 300 nM | – | – | < 5000 nM
N#Cc1cccc2c(=O)[nH]c(-c3cnc(N4CCN(C(=O)C5CC5)CC4)nc3)cc12 [IQ-007, 3-[2-(4-Cyclopropanecarbonyl-piperazin-1-yl)-pyrimidin-5-yl]-1-oxo-1,2-dihydro-isoquinoline-5-carbonitrile] | < 50 nM | < 300 nM | – | – | –
CN1CCC(N(C)C(=O)c2ccc(-c3cc4c(C#N)cccc4c(=O)[nH]3)cc2)CC1 [IQ-005] | < 50 nM | < 300 nM | < 5000 nM | – | –
N#Cc1cccc2c(=O)[nH]c(-c3ccc(CN4CC5CCC(C4)N5)cc3)cc12 [IQ-003] | < 100 nM | < 300 nM | < 5000 nM | – | –
CN1CCN(C(=O)Cc2ccc(-c3cc4c(C#N)cc(F)cc4c(=O)[nH]3)cc2)CC1 [IQ-036] | < 50 nM | < 300 nM | < 5000 nM | – | –
N#Cc1cccc2c(=O)[nH]c(-c3ccc(N4CCNCC4)cc3)cc12 [IQ-054] | < 50 nM | – | – | – | < 5000 nM
N#Cc1cccc2c(=O)[nH]c(-c3ccc(N4CCNCC4)nc3)cc12 [IQ-052] | < 100 nM | < 300 nM | < 5000 nM | – | –

More lines, main results first:

IC50 (TNKS1) | IC50 (Wnt signalling) | IC50 (COLO320DM cells) | IC50 (HT55 cells; [1]) | Structure (SMILES) | IC50 (HT55 cells)
< 100 nM | < 300 nM | < 5000 nM | – | N#Cc1cccc2c(=O)[nH]c(-c3ccc(Cn4nccn4)cc3)cc12 [IQ-027] | –
– | < 300 nM | – | – | N#Cc1cccc2c(=O)[nH]c(-c3ccc(CN4CCNCC4)cc3)cc12 [IQ-050, 1-Oxo-3-(4-piperazin-1-ylmethyl-phenyl)-1,2-dihydro-isoquinoline-5-carbonitrile] | –
< 50 nM | < 300 nM | < 5000 nM | – | COCCN1CCN(C(=O)c2ccc(-c3cc4c(C#N)cccc4c(=O)[nH]3)cc2)CC1 [IQ-035] | –
< 50 nM | – | < 5000 nM | < 5000 nM | CN1CCCN(Cc2ccc(-c3cc4c(C#N)cccc4c(=O)[nH]3)cc2)CC1 [IQ-048] | –
< 50 nM | < 300 nM | – | – | N#Cc1cccc2c(=O)[nH]c(-c3ccc(Cn4cccn4)cc3)cc12 [IQ-021] | –
< 50 nM | < 300 nM | < 5000 nM | < 5000 nM | N#Cc1cccc2c(=O)[nH]c(-c3ccc(Cn4ccnc4N)cc3)cc12 [IQ-018] | –
< 50 nM | – | – | < 5000 nM | N#Cc1cccc2c(=O)[nH]c(-c3ccc(C(=O)N4CCNCC4)cc3)cc12 [IQ-004, 1-Oxo-3-[4-(piperazine-1-carbonyl)-phenyl]-1,2-dihydro-isoquinoline-5-carbonitrile] | –
